Test results from paper PMC10916623, “Tissue distribution and pharmacokinetics of isoxanthohumol from hops in rodents” (Food Science & Nutrition, 2023).
Several values for one entry are separate records, joined by “and”; a condition that tells them apart may be missing. Equal values may be shown once. Read-outs that look alike come from different tables or passages of the source. Marks after values point to notes of the source that are not given here.

Columns and labels:
[1] = Plasma pharmacokinetics after single-gavage administration of IXA to mice; format: in vivo, C57/BL6 mice; details: for Cmax: mean ± SEM
Method: (§1) Six‐week‐old male C57/BL6 mice (initial BW: 19–24 g; Japan SLC, Shizuoka, Japan) were housed in a room maintained at 23–26°C with a 12‐h light–dark cycle. During the 1‐week acclimatization period, they were allowed free access to a commercial diet (Oriental Yeast Co., Tokyo, Japan) and water. Two days before the experiment, they were fed AIN‐93M (Oriental Yeast Co.). Before drug administration, they were fasted for 20 h, but had free access to water. IXA dissolved in 3% hydroxypropyl‐β‐cyclodextrin and 5% ethanol (Fujifilm; Wako Pure Chemical Corp., Osaka, Japan) was named the injection solution and administered (50 mg/kg BW) to mice intragastrically using a gastric feeding tube (AS ONE, Osaka, Japan). Blood, brain, thymus, heart, lung, liver, spleen, pancreas, kidney, and gastrocnemius muscle were collected 0.5, 1, 2, 4, 8, 12, 24, and 48 h after administration. We also set up a control group, and mice in this group were sacrificed just before we started administering IXA at 0 h. At 4 h after administration, mice were allowed free access to AIN‐93 M. Plasma was isolated by centrifugation at 17 × 10^3 m/s^2 (5911, Kubota, Tokyo, Japan) for 5 min at 4°C. All tissues were dissected, weighed, and immediately frozen in liquid nitrogen. All samples were stored at −80°C until analysis.
Plasma samples were deconjugated by β‐glucuronidase type H‐1 (which has β‐glucuronidase and sulphatase activity; Sigma, St. Louis, MO, USA; G0751) to convert aglycon from conjugated metabolites of IXA and 8‐PN, as described in a previous report (Y. Tanaka et al., [2022]). Briefly, 100 μL of plasma was mixed with 900 μL of 0.1 mol/L sodium acetate buffer (pH 4.7), 200 μL of 50 mmol/L ascorbic acid, and 1 mL of 1.67 μkat/100 μL of β‐glucuronidase type H‐1, and then incubated for 30 min at 37°C. Then, 2.4 nmol of QTM was added to the samples as the internal standard. The liberated aglycone was extracted using ethyl acetate (Kanto Kagaku, 14,029‐2B).
(§2) The plasma and tissue extracts were evaporated using a Centrifugal Evaporator (EYERA, Tokyo, Japan, CVE‐3000). The samples were stored at −80°C until the next day. Then, the samples were dissolved in 120 μL of a mobile phase solution and divided into two test tubes. The first sample was injected into the HPLC with an ultraviolet detection system (Shimadzu, Kyoto, Japan).
(§3) IXA and 8‐PN concentrations were determined by their respective standard curves using an internal standard method. A Cadenza 3‐μm CD‐C18 HPLC column (CD005, 150 × 4.6 mm; Imtakt Corporation, Kyoto, Japan) was equipped for HPLC (λ = 295 nm). The mobile phase consisted of methanol:water:acetic acid (60:35:5, v/v/v). The flow rate was set at 1.0 mL/min. […] Because clear peaks over 4.5 pmol/sample were detected for IXA and 8‐PN by visual evaluation, we determined that these concentrations were the peak limit of detections for each flavonoid. We applied calibration curves in the IXA/QTM concentration ratio range of 0.007–35.1 (R ^2 = .9955).

[2] = Tissue distribution after single-gavage administration of IXA to mice; format: in vivo, C57/BL6 mice; details: mice; for IXA accumulation, single-ingestion test (at 24 h): single IXA 50 mg/kg BW
Method: as §1
(§4) Tissue sample deconjugation was performed as described in a previous report with slight modifications (Tanaka et al., [2022]). Tissues were homogenized in phosphate‐buffered saline (pH 7.4), which was nine times the tissue volume. The tissue homogenate was incubated in 50 mmol/L ascorbic acid (one‐fifth the volume of phosphate‐buffered saline) and 1.67 μkat/100 μL of β‐glucuronidase type H‐1 in 0.1 mol/L sodium acetate buffer (pH 4.7, nine times the volume of the sample) for 2 h at 37°C. Then, 2.4 nmol of QTM was added to samples as an internal standard. The supernatant was isolated by centrifugation at 17 × 10^3 m/s^2 (Kubota) for 5 min at 4°C. Then, methanol (Kanto Kagaku, 25183‐2B) was added to the pellets, and they were shaken for 1 min. The methanol layer and pellets were separated by centrifugation at 17 × 10^3 m/s^2 (Kubota, RY1071‐A000) for 5 min at 4°C. Methanol extraction was repeated three times. Finally, methanol extracts were mixed with the supernatant (the composition of the mixture was 30% methanol) and then applied to an Inert Sep C8 (200 mg/3 mL; GL Sciences, Tokyo, Japan; 5010‐61082) cartridge. The cartridge was preconditioned with 6 mL of 2% acetic acid in methanol, and then 9 mL of 2% acetic acid in water. The extracted tissue was passed through the cartridge, and it was washed with 5 mL of 2% acetic acid in 30% methanol aq. The flavonoids were eluted with 10 mL of 2% acetic acid in methanol.
as §2, §3

[3] = Liver accumulation after intragastric IXA administration at various concentrations to rats for 28 days; format: in vivo, Sprague–Dawley rats; details: rat liver; IXA 112.5–1500 mg/kg BW once a day for 28 days; Pearson
Method: Six‐week‐old female Sprague–Dawley rats (Charles River Laboratories Japan, Inc., Yokohama, Japan) were housed in a room maintained at 20–26°C on a 12‐h light–dark cycle. The initial BW of rats was 176–179 g. They were allowed free access to a commercial diet (CRF‐1) and water during the experiment. IXA dissolved in injection solution was administered intragastrically to rats (112.5, 225, 360, 450, and 1500 mg/kg BW) daily for 28 days using a gastric feeding tube. We also set up a control group to which the injection solution was administered. The final BW of rats was 231–241 g. The liver was collected the day after the last administration. The rats were fasted for 16–24 h before they were euthanized, but they had free access to water. Liver samples were stored at −80°C until analysis.
as §4
The plasma and tissue extracts were evaporated using a Centrifugal Evaporator (EYERA, Tokyo, Japan, CVE‐3000). The samples were stored at −80°C until the next day. Then, the samples were dissolved in 120 μL of a mobile phase solution and divided into two test tubes. […]
IXA and 8‐PN concentrations were determined by their respective standard curves using an internal standard method. […] Because clear peaks over 4.5 pmol/sample were detected for IXA and 8‐PN by visual evaluation, we determined that these concentrations were the peak limit of detections for each flavonoid. […]

[4] = parameters: method as in Possemiers et al., 2008; details: ref Possemiers et al., 2008; cited from earlier work
[5] = single oral IXA 50 mg/kg BW, plasma
[6] = kidney, single oral IXA 50 mg/kg BW
[7] = lung, single oral IXA 50 mg/kg BW

IXA accumulation, single-ingestion test (at 24 h) ([1]; plasma, single IXA 50 mg/kg BW, 24 h): 0.2 ± 0.1 μmol/L of plasma | time at which IXA was increased further ([1]; plasma, single oral IXA 50 mg/kg BW): 8 h | IXA in plasma at 48 h after administration ([1]; single oral IXA 50 mg/kg BW, 48 h): not detected | T 1/2 (half-life in the mean elimination phase) [1, 5]: 1.43 h and 1.4 h | time until which detected in plasma after ingestion [1, 5]: 24 h | Cmax ([1]; single oral IXA 50 mg/kg BW, plasma, at 0.5 h, read-out: plasma maximum concentration (C max)): 3.95 ± 0.81 µM | AUC24h ([1]; single oral IXA 50 mg/kg BW, plasma, calculated using the mean at each time point): 18.2 µM·h | Cmax ([1]; single oral IXA 50 mg/kg BW, plasma, read-out: C max): 4 ± 0.8 µM | IXA detection in the brain ([2]; brain, single oral IXA 50 mg/kg BW, data not shown): not detected | time of second peak of IXA ([2]; heart, single oral IXA 50 mg/kg BW): 4 h | C max IXA ([2]; heart, single oral IXA 50 mg/kg BW, measured at 0.5 h): 3.3 ± 1.0^b,c nmol/g of tissue | IXA accumulation, single-ingestion test (at 24 h) ([2]; kidney): 4.6 ± 0.3 nmol/g of tissue | time of second peak of IXA [2, 6]: 8 h | IXA level at 48 h after ingestion [2, 6]: 2.67 ± 0.41 nmol/g tissue | C max IXA ([2]; kidney, single oral IXA 50 mg/kg BW, measured at 1 h): 25.5 ± 5.3^a,b nmol/g of tissue | IXA accumulation, single-ingestion test (at 24 h) ([2]; liver): 3.2 ± 1.3 nmol/g of tissue | IXA level at 48 h after ingestion ([2]; liver, single oral IXA 50 mg/kg BW): 0.14 ± 0.12 nmol/g tissue | C max IXA ([2]; liver, single oral IXA 50 mg/kg BW, measured at 1 h): 76.2 ± 32.4^a nmol/g of tissue | IXA accumulation, single-ingestion test (at 24 h) ([2]; lung): 1.7 ± 1.5 nmol/g of tissue | time of second peak of IXA [2, 7]: 2 h | IXA level at 48 h after ingestion [2, 7]: 0.05 ± 0.04 nmol/g tissue | C max IXA ([2]; lung, single oral IXA 50 mg/kg BW, measured at 0.5 h): 5.3 ± 3.3^b,c nmol/g of tissue | IXA accumulation, single-ingestion test (at 24 h) ([2]; muscle): 0.1 ± 0.1 nmol/g of tissue | C max IXA ([2]; muscle, single oral IXA 50 mg/kg BW, measured at 0.5 h): 3.4 ± 1.3^b,c nmol/g of tissue | time of second peak of IXA ([2]; pancreas, single oral IXA 50 mg/kg BW): 12 h | C max IXA ([2]; pancreas, single oral IXA 50 mg/kg BW, measured at 0.5 h): 22.4 ± 2.1^b,c nmol/g of tissue | time of second peak of IXA ([2]; skeletal muscle, single oral IXA 50 mg/kg BW): 12 h | IXA accumulation, single-ingestion test (at 24 h) ([2]; spleen): 1.1 ± 1.0 nmol/g of tissue | time of second peak of IXA ([2]; spleen, single oral IXA 50 mg/kg BW): 4 h | C max IXA ([2]; spleen, single oral IXA 50 mg/kg BW, measured at 0.5 h): 6.5 ± 2.2^b,c nmol/g of tissue | IXA accumulation, single-ingestion test (at 24 h) ([2]; thymus): 3.6 ± 3.1 nmol/g of tissue | time of second peak of IXA ([2]; thymus, single oral IXA 50 mg/kg BW): 4 h | C max IXA ([2]; thymus, single oral IXA 50 mg/kg BW, measured at 0.5 h): 6.5 ± 4.1^b,c nmol/g of tissue | correlation coefficient between dose-concentration and accumulation [3]: .813
Substance: 4,7‐dihydroxy‐5‐methoxy‐8‐prenylflavanone [IXA]
rate of excretion into the feces [4]: approximately 47%
